# Results as given in patent US7045510B2, “Methods for prevention and treatment of mastitis” (priority 2004, dated 2006).
# Assays:
# [1] = Milk yield in the subsequent lactation after infusion at dry-off; type: in vivo, cows; settings: for Mean yearly milk yield: mean per cow of the group
# Description: (§1) Experimental Design: At dry-off all quarters of even numbered cows (n=39) were infused with antibiotics (Cefa-Dri (Fort Dodge Animal Health, Fort Dodge, Iowa 50501) containing 300 mg cephapirin […] in peanut oil) approved for use by FDA. All quarters of odd numbered cows (n=40) were infused with dextran (total dose 100 mg DEAE-dextran (Sigma Chemical Co. St. Louis, Mo.)) in 1 ml of sterile filtered distilled water and suspended in 9 ml of peanut oil (Sigma).
# [2] = test system: intramammary infections (mastitis); experiment: Intramammary infection status before dry-off and after calving, all 4 quarters infused at dry-off; type: in vivo, cows; settings: for new infections (quarters infected during the dry period) / old infections (quarters remaining infected after calving): group total after calving; for infected quarters at dry-off: baseline before infusion
# Description: as §1
# [3] = test system: milk somatic cell concentration (SCC); experiment: Milk somatic cell concentration (SCC) after intramammary infusion at drying-off; type: in vivo, dairy cows
# Description: as §1
# Mammary quarters of 4 dairy cows at drying-off were infused with either 100 mg of DEAE-dextran, peanut oil, or were uninfused. Secretions were collected at 0, 24, 48, 72, 96, and 120 hours post infusion for determination of milk somatic cell concentration.
substance,measurement,setting,value
diethylaminoethyl-dextran,milk yield per cow more than cows that received antibiotics,[1],approximately 700 pounds
same,Mean yearly milk yield,[1],Mean 26029 pounds
same,Mean yearly milk yield,[1]; listed as dextran,"26,029 pounds"
same,new infections (quarters infected during the dry period),[2],26 new infections quarters
same,old infections (quarters remaining infected after calving),[2],17 old infections quarters
same,new infections (quarters infected during the dry period),[2]; listed as dextran,26 quarters
same,old infections (quarters remaining infected after calving),[2]; listed as dextran,17 quarters
same,infected quarters at dry-off,[2]; group total,38 quarters infected
same,infected quarters at dry-off,"[2]; group total, listed as dextran",38 quarters
same,total infections after calving,"[2]; group total, old plus new",43 infections
same,net gain of intramammary infections,[2]; total after calving compared to infected quarters at dry-off,5 infections
same,milk somatic cell count,"[3]; 0 hour, quarters of 4 dairy cows infused with 100 mg at drying-off",129000 mL⁻¹
same,milk somatic cell count,"[3]; 24 hours post infusion, 100 mg per quarter at drying-off","19,591 ×10^3/ml"
same,milk somatic cell count,"[3]; 72 hours post infusion, 100 mg per quarter at drying-off","8,000 ×10^3/ml"
same,milk somatic cell concentration (SCC) increased to,[3]; total dose 100 mg in 1 ml water suspended in 9 ml peanut oil (FIG. 1),one million
same,"clinical symptoms (swelling, elevated body temperature, redness of udder, pain)",[3]; total dose 100 mg intramammary,no clinical symptoms
